{"source": "patent US20220347071A1", "about": "“USE OF CANNABINOIDS IN THE TREATMENT OF ORAL INFLAMMATION AND PERIODONTAL DISEASE” (priority 2021, published 2022)", "key": {"IL-8": {"tested_on": "IL-8", "assay": "IL-8 release by PMA-stimulated NHEK (ELISA)", "type": "cell-based, human", "conditions": "for Effect on IL-8 release (in words): PMA-stimulated keratinocytes; for IL-8 release, % Relative inhibition: NHEK, PMA 0.5 μg/ml, 24 h", "description": "(§1) The effects on normal human epidermal keratinocytes (NHEK) were measured by assessing IL-8 and PGE2 release by PMA-stimulated NHEK using specific ELISA kits.\n(§2) Normal human epidermal keratinocytes (NHEK): • Cell type: NHEK • Culture conditions: 37° C., 5% CO2 • Culture medium: Keratinocyte SFM supplemented with Epidermal Growth Factor (EGF) 0.25 ng/ml • Pituitary extract (PE) 25 μg/ml • Gentamycin 25 μg/ml • Assay medium 1: Epilife® medium supplemented with PE 0.2% • Bovine transferrin 5 μg/ml • EGF 0.2 ng/ml • Insulin 5 μg/ml • Gentamycin/Amphotericin • Assay medium 2: Keratinocyte SFM supplemented with Gentamycin 25 μg/ml\n(§3) Keratinocytes were seeded in 96-well plates and cultured for 24 hours in culture medium. […] After pre-incubation, the medium was removed and replacedby assay medium 1 containing or not (stimulated control) the compounds or the reference compound and containing the inducer (PMA tested at 0.5 μg/ml). The cells were then incubated for 24 hours. In parallel, a non-stimulated control condition was performed.\n(§4) All experimental conditions were performed in n=3. At the end of incubation, the culture supernatants were collected for IL-8 and PGE2 quantifications.\n(§5) IL-8 and PGE2 released in the culture supernatants were measured using specific ELISA kits according to the supplier's instructions."}, "PGE2": {"tested_on": "PGE2", "assay": "PGE2 release by PMA-stimulated NHEK (ELISA)", "type": "cell-based, human", "conditions": "for PGE2 release, % of the control: highest tested concentration; for PGE2 release, % of the control / Effect on PGE2 release (in words) / PGE2 release, % of relative inhibition: PMA-stimulated keratinocytes; for PGE2 release, % of relative inhibition: concentration not given; for PGE2 release, % Relative inhibition: NHEK, PMA 0.5 μg/ml, 24 h", "description": "as §1, §2, §3, §4, §5"}}, "note": "“Also recorded” adds a separate entry of the source."}
{"smiles": "C=C(C)[C@@H]1CCC(C)=C[C@H]1c1c(O)cc(CCCCC)cc1O", "note": "[CBD, cannabidiol, reference compound]", "values": [{"measurement": "Effect on IL-8 release (in words)", "setting": "IL-8; tested at 0.3 μM", "result": "overstimulated IL-8 release"}, {"measurement": "PGE2 release, % of the control", "setting": "PGE2", "result": 185, "unit": "%"}]}
{"smiles": "C=C(C)[C@@H]1CCC(C)=C[C@H]1c1c(O)cc(CCCCC)c(C(=O)O)c1O", "note": "[CBDA, cannabidiolic acid, reference compound]", "values": [{"measurement": "Effect on PGE2 release (in words)", "setting": "PGE2", "result": "did not modulate"}]}
{"smiles": "CCCCCc1cc(O)c(C/C=C(\\C)CCC=C(C)C)c(O)c1", "note": "[CBG, cannabigerol]", "values": [{"measurement": "Effect on IL-8 release (in words)", "setting": "IL-8; concentration not given", "result": "significantly inhibited"}, {"measurement": "Effect on IL-8 release (in words)", "setting": "IL-8; tested at 3 (unit not given)", "result": "strongly inhibited"}, {"measurement": "Effect on PGE2 release (in words)", "setting": "PGE2", "result": "significant at all tested concentrations; also recorded: significantly inhibited"}, {"measurement": "PGE2 release, % of relative inhibition", "setting": "PGE2", "result": "about 160%"}]}
{"smiles": "CCCCCc1cc(O)c(C/C=C(\\C)CCC=C(C)C)c(O)c1C(=O)O", "note": "[CBGA, cannabigerolic acid, reference compound]", "values": [{"measurement": "PGE2 release, % of the control", "setting": "PGE2", "result": 182, "unit": "%"}]}
{"smiles": "CCCc1cc(O)c(C/C=C(\\C)CCC=C(C)C)c(O)c1C(=O)O", "note": "[CBGVA, cannabigerovarinic acid]", "values": [{"measurement": "IL-8 release, % Relative inhibition", "setting": "IL-8; 0.1 μM", "result": 2, "unit": "%"}, {"measurement": "IL-8 release, % Relative inhibition", "setting": "IL-8; 0.3 μM", "result": 11, "unit": "%"}, {"measurement": "IL-8 release, % Relative inhibition", "setting": "IL-8; 1 μM", "result": 9, "unit": "%"}, {"measurement": "PGE2 release, % Relative inhibition", "setting": "PGE2; 0.1 μM", "result": 19, "unit": "%"}, {"measurement": "PGE2 release, % Relative inhibition", "setting": "PGE2; 0.3 μM", "result": 65, "unit": "%"}, {"measurement": "PGE2 release, % Relative inhibition", "setting": "PGE2; 1 μM", "result": ">162", "unit": "%"}, {"measurement": "Effect on PGE2 release (in words)", "setting": "PGE2", "result": "significant effect only when tested at the highest concentration; also recorded: inhibited"}, {"measurement": "PGE2 release, % of relative inhibition", "setting": "PGE2", "result": "about 160%"}]}
{"smiles": "COc1ccc2c(c1)c(CC(=O)O)c(C)n2C(=O)c1ccc(Cl)cc1", "note": "[Indomethacin, indomethacin, reference compound]", "values": [{"measurement": "PGE2 release, % Relative inhibition", "setting": "PGE2; 1 μM", "result": ">169", "unit": "%"}]}
{"smiles": "O=C1O[C@H]([C@@H](O)CO)C(O)=C1O", "note": "[L-Ascorbic acid, reference compound]", "values": [{"measurement": "Effect on PGE2 release (in words)", "setting": "PGE2", "result": "overall the same effect at all tested concentrations; also recorded: significantly limited"}, {"measurement": "PGE2 release, % of relative inhibition", "setting": "PGE2", "result": "~145", "unit": "%"}]}
